Data taken from patent publication US8722849B2, “Polypeptides” (Novo Nordisk A/S, priority 2011, dated 2014).
In brackets after ≈: the same amount, converted by molar mass. Like-named read-outs stand apart in the source and are kept apart here. Starred links: 1 amine or outer side, 2 acyl side, 3 side chain; linkers in the order of their positions; H or OH if unused. Positions of bridges follow the written chain, without caps; N, C: chain ends. Residues, ends and D or L forms follow the SMILES beside them. *: point of attachment. C20 diacid = O=C(O)CCCCCCCCCCCCCCCCCCC(=O)*; γGlu = O=C(O)[C@H](CCC(=O)[*:2])N[*:1]

Legend:
[1] = molecular target: T1, human amylin receptor (amylin 3(a) receptor: human calcitonin receptor + RAMP-3) (Homo sapiens, UniProt O60896+P30988); experiment: Assay (II)a functional CRE-luciferase assay, human amylin receptor; assay type: cell-based
T1 construct: expressed in transfected cells; host or cells: BHK570
T1 sequence (P30988 25-474): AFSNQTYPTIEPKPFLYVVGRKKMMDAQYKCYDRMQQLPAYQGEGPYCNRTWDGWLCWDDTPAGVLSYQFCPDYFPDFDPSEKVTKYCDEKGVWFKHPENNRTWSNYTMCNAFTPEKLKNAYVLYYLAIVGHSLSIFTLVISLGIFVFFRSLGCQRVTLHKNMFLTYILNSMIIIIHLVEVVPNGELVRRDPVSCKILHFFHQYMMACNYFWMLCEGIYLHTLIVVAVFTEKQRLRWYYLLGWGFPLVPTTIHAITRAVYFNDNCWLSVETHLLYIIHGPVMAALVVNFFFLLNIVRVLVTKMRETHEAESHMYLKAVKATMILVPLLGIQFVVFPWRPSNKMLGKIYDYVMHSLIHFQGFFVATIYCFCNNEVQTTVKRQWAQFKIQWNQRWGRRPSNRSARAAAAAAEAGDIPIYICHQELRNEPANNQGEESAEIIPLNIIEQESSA
T1 sequence (O60896 24-148 partner): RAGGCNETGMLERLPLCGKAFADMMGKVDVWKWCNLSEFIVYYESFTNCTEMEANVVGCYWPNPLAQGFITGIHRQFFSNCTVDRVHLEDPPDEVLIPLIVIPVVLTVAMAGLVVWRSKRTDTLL
Description: (§1) 1. Luciferase Assay Outline
(§2) Activation of calcitonin and amylin (coexpression of calcitonin receptor and receptor activity modifying proteins (RAMP)) receptors lead to increased intracellular concentrations of cAMP. Consequently, transcription is activated by promoters containing multiple copies of the cAMP response element (CRE). It is thus possible to measure amylin activity by the use of a CRE luciferase reporter gene introduced into BHK cells also expressing calcitonin or amylin receptors.
(§3) A BHK570 cell line was stably transfected with the human calcitonin receptor and a CRE-responsive luciferase reporter gene. The cell line was further transfected with RAMP-3, using standard methods. This turns the calcitonin receptor into an amylin 3(a) receptor. Methotrexate, Neomycin, and Hygromycin are selection markers for luciferase, the calcitonin receptor, and RAMP-3, respectively.
(§4) To perform activity assays, BHK calcitonin (a) receptor- or amylin 3(a)-receptor/CRE-luc cells were seeded in white 96 well culture plates at a density of about 20.000 cells/well. […] Further, 50 μl/well of standard or sample in assay buffer were added. After 3 hours incubation at 37° C. and 5% CO2, the assay medium with standard or sample were removed and replaced by 100 μl/well PBS. Further, 100 μl/well LucLite™ was added. The plates were sealed and incubated at room temperature for 30 minutes. Finally, luminescence was measured on a TopCounter (Packard) in SPC (single photon counting) mode.

[2] = Assay (IV) determination of solubility; assay type: physicochemical
In short: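 Eight 100 mM buffers (glycylglycine pH 3.0–5.0, bistrispropane pH 6.0–8.0) each received an equal volume of polypeptide dissolved in water at ~500 nmol/ml. Soluble polypeptide was measured by HPLC following 18 hours at room temperature and centrifugation.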

[3] = molecular target: T2, human calcitonin receptor (Homo sapiens, UniProt P30988); experiment: Assay (II)a functional CRE-luciferase assay, human calcitonin receptor; assay type: cell-based; conditions: Table 7; human calcitonin (CTa) receptor
T2 construct: expressed in transfected cells; host or cells: BHK570
T2 sequence (P30988 25-474): T1 sequence (P30988 25-474)
Description: as §1, §2, §3, §4

[4] = Table 2, BHK amylin 3(a)-receptor/CRE-luc cells
[5] = bistrispropane buffer, pH 6, pH 6.0, read-out: Solubility pH 6.0
[6] = bistrispropane buffer, pH 6.5, pH 6.5, read-out: Solubility pH 6.5
[7] = bistrispropane buffer, pH 7, pH 7.0, read-out: Solubility pH 7.0
[8] = bistrispropane buffer, pH 7.5, pH 7.5, read-out: Solubility pH 7.5
[9] = bistrispropane buffer, pH 8, pH 8.0, read-out: Solubility pH 8.0
[10] = glycylglycine buffer, pH 3, pH 3.0, read-out: Solubility pH 3.0
[11] = glycylglycine buffer, pH 4, pH 4.0, 18 hours at room temperature, Table 2, read-out: Solubility pH 4.0
[12] = glycylglycine buffer, pH 4, pH 4.0, read-out: Solubility pH 4.0
[13] = glycylglycine buffer, pH 5, pH 5.0, read-out: Solubility pH 5.0
[14] = pH 6.5, read-out: Solubility pH 6.5
[15] = pH 7.0, read-out: Solubility pH 7.0

EC50 [1, 4] [pM]	solubility at 18 h [2, 5] [µM]	solubility at 18 h [2, 6] [µM]	solubility at 18 h ([2]; bistrispropane buffer, pH 7, pH 7.0, 18 hours at room temperature, Table 3, read-out: Solubility pH 7.0) [µM]	solubility at 18 h [2, 7] [µM]	solubility at 18 h [2, 8] [µM]	solubility at 18 h [2, 9] [µM]	solubility at 18 h [2, 10] [µM]	solubility at 18 h [2, 11] [µM]	solubility at 18 h [2, 12] [µM]	EC50 [3] [pM]	solubility at 18 h [2, 13] [µM]	solubility at 18 h [2, 14] [µM]	solubility at 18 h [2, 15] [µM]	EC50 ([1]; Table 6, human amylin receptor) [pM]	solubility at 18 h ([2]; pH 5.0, read-out: Solubility pH 5.0) [µM]	solubility at 18 h ([2]; pH 6.0, read-out: Solubility pH 6.0) [µM]	SMILES
253	42 (≈ 180 µg/mL)	82 (≈ 351 µg/mL)	146 (≈ 624 µg/mL)	146 (≈ 624 µg/mL)	183 (≈ 782 µg/mL)	190 (≈ 812 µg/mL)	> 200	120 (≈ 513 µg/mL)	120 (≈ 513 µg/mL)	284							CC[C@H](C)[C@H](NC(=O)[C@@H]1CCCN1C(=O)CNC(=O)[C@H](Cc1ccccc1)NC(=O)[C@H](CCC(N)=O)NC(=O)[C@H](CCC(N)=O)NC(=O)[C@H](CO)NC(=O)[C@H](CO)NC(=O)[C@H](CCCNC(=N)N)NC(=O)[C@H](Cc1c[nH]cn1)NC(=O)[C@H](CC(C)C)NC(=O)[C@H](Cc1ccccc1)NC(=O)[C@H](CCC(=O)O)NC(=O)[C@H](C)NC(=O)[C@H](CC(C)C)NC(=O)[C@H](CCCNC(=N)N)NC(=O)[C@H](CCC(N)=O)NC(=O)[C@@H](NC(=O)[C@H](C)NC(=O)[C@@H]1CSSC[C@H](NC(=O)CC[C@H](NC(=O)CCCCCCCCCCCCCCCCCCC(=O)O)C(=O)O)C(=O)NCC(=O)N[C@@H]([C@@H](C)O)C(=O)N[C@@H](C)C(=O)N[C@@H]([C@@H](C)O)C(=O)N1)[C@@H](C)O)C(=O)N[C@@H](CC(C)C)C(=O)N1CCC[C@H]1C(=O)N1CCC[C@H]1C(=O)N[C@H](C(=O)N[C@@H](CCC(=O)O)C(=O)N[C@H](C(=O)NCC(=O)N[C@@H](CO)C(=O)NCC(=O)N[C@H](C(=O)N[C@@H](Cc1ccc(O)cc1)C(N)=O)[C@@H](C)O)C(C)C)[C@@H](C)O [Example 4, N-alpha-[(S)-4-Carboxy-4-(19-carboxynonadecanoylamino)butyryl]-[des1,Gly3,Glu14,His17,Arg18,Gln21,Gln22,Glu31,Gly35]-pramlintide] ({C20 diacid-γGlu}-CGTATCATQRLAEFLHRSSQQFGPILPPTEVGSGTY-NH2; disulfide 1-6 (inferred))
115	12 (≈ 53.1 µg/mL)				18 (≈ 79.6 µg/mL)	48 (≈ 212 µg/mL)	> 200	163 (≈ 721 µg/mL)	163 (≈ 721 µg/mL)	240	168 (≈ 743 µg/mL)	4 (≈ 17.7 µg/mL)	7 (≈ 31 µg/mL)				CC(C)C[C@H](NC(=O)[C@H](CCCNC(=N)N)NC(=O)[C@H](CCC(N)=O)NC(=O)[C@@H](NC(=O)[C@H](C)NC(=O)[C@@H]1CSSC[C@H](NC(=O)[C@H](Cc2cnc[nH]2)NC(=O)CC[C@H](NC(=O)CCCCCCCCCCCCCCCCCCC(=O)O)C(=O)O)C(=O)N[C@@H](CC(N)=O)C(=O)N[C@@H]([C@@H](C)O)C(=O)N[C@@H](C)C(=O)N[C@@H]([C@@H](C)O)C(=O)N1)[C@@H](C)O)C(=O)N[C@@H](C)C(=O)N[C@@H](CCC(=O)O)C(=O)N[C@@H](Cc1ccccc1)C(=O)N[C@@H](CC(C)C)C(=O)N[C@@H](Cc1cnc[nH]1)C(=O)N[C@@H](CCCNC(=N)N)C(=O)N[C@@H](CO)C(=O)N[C@@H](CO)C(=O)N[C@@H](CC(N)=O)C(=O)N[C@@H](CC(N)=O)C(=O)N[C@@H](Cc1ccccc1)C(=O)NCC(=O)N[C@@H](C)C(=O)N1CCC[C@H]1C(=O)N[C@@H](CC(C)C)C(=O)N[C@@H](CO)C(=O)N[C@@H](CO)C(=O)N[C@H](C(=O)N[C@@H](CC(N)=O)C(=O)N[C@H](C(=O)NCC(=O)N[C@@H](CO)C(=O)N[C@@H](CC(N)=O)C(=O)N[C@H](C(=O)N[C@@H](Cc1ccc(O)cc1)C(N)=O)[C@@H](C)O)C(C)C)[C@@H](C)O [Example 6, N-alpha-[(S)-4-Carboxy-4-(19-carboxynonadecanoylamino)butyryl]-[His1,Glu14,His17,Arg18,Ala25,Pro26,Ser28,Ser29]-pramlintide] ({C20 diacid-γGlu}-HCNTATCATQRLAEFLHRSSNNFGAPLSSTNVGSNTY-NH2; disulfide 2-7)
	1 (≈ 4.5 µg/mL)	1 (≈ 4.5 µg/mL)		1 (≈ 4.5 µg/mL)	1 (≈ 4.5 µg/mL)	3 (≈ 13.5 µg/mL)	178 (≈ 800 µg/mL)		93 (≈ 418 µg/mL)	278	2 (≈ 8.99 µg/mL)			126			CC(C)C[C@H](NC(=O)[C@H](CCCNC(=N)N)NC(=O)[C@H](CCC(N)=O)NC(=O)[C@@H](NC(=O)[C@H](C)NC(=O)[C@@H]1CSSC[C@H](NC(=O)[C@H](Cc2c[nH]cn2)NC(=O)CC[C@H](NC(=O)CCCCCCCCCCCCCCCCCCC(=O)O)C(=O)O)C(=O)N[C@@H](CC(N)=O)C(=O)N[C@@H]([C@@H](C)O)C(=O)N[C@@H](C)C(=O)N[C@@H]([C@@H](C)O)C(=O)N1)[C@@H](C)O)C(=O)N[C@@H](C)C(=O)N[C@@H](CCC(=O)O)C(=O)N[C@@H](Cc1ccccc1)C(=O)N[C@@H](CC(C)C)C(=O)N[C@@H](Cc1c[nH]cn1)C(=O)N[C@@H](CCCNC(=N)N)C(=O)N[C@@H](CO)C(=O)N[C@@H](CO)C(=O)N[C@@H](CC(N)=O)C(=O)N[C@@H](CCC(=O)O)C(=O)N[C@@H](Cc1ccccc1)C(=O)NCC(=O)N[C@@H](C)C(=O)N[C@@H](CCCNC(=N)N)C(=O)N[C@@H](CC(C)C)C(=O)N[C@@H](CO)C(=O)N[C@@H](CO)C(=O)N[C@H](C(=O)N[C@@H](CC(N)=O)C(=O)N[C@H](C(=O)NCC(=O)N[C@@H](CO)C(=O)N[C@@H](CC(N)=O)C(=O)N[C@H](C(=O)N[C@@H](Cc1ccc(O)cc1)C(N)=O)[C@@H](C)O)C(C)C)[C@@H](C)O [Example 8, N-alpha-[(S)-4-Carboxy-4-(19-carboxynonadecanoylamino)butyryl]-[His1,Glu14,His17,Arg18,Glu22,Ala25,Arg26,Ser28,Ser29]-pramlintide] ({C20 diacid-γGlu}-HCNTATCATQRLAEFLHRSSNEFGARLSSTNVGSNTY-NH2; disulfide 2-7 (inferred))
83					56 (≈ 249 µg/mL)	134 (≈ 596 µg/mL)	> 200	> 200	> 200	125		1 (≈ 4.45 µg/mL)	10 (≈ 44.5 µg/mL)		10 (≈ 44.5 µg/mL)	1 (≈ 4.45 µg/mL)	CC[C@H](C)[C@H](NC(=O)[C@@H]1CCCN1C(=O)CNC(=O)[C@H](Cc1ccccc1)NC(=O)[C@H](CC(N)=O)NC(=O)[C@H](CC(N)=O)NC(=O)[C@H](CO)NC(=O)[C@H](CO)NC(=O)[C@H](CCCNC(=N)N)NC(=O)[C@@H](NC(=O)[C@H](CC(C)C)NC(=O)[C@H](Cc1ccccc1)NC(=O)[C@H](CCC(=O)O)NC(=O)[C@H](C)NC(=O)[C@H](CC(C)C)NC(=O)[C@H](CCCNC(=N)N)NC(=O)[C@H](CCC(N)=O)NC(=O)[C@@H](NC(=O)[C@H](C)NC(=O)[C@@H]1CSSC[C@H](NC(=O)[C@H](Cc2cnc[nH]2)NC(=O)CC[C@H](NC(=O)CCCCCCCCCCCCCCCCCCC(=O)O)C(=O)O)C(=O)N[C@@H](CC(N)=O)C(=O)N[C@@H]([C@@H](C)O)C(=O)N[C@@H](C)C(=O)N[C@@H]([C@@H](C)O)C(=O)N1)[C@@H](C)O)C(C)C)C(=O)N[C@@H](CC(C)C)C(=O)N1CCC[C@H]1C(=O)N1CCC[C@H]1C(=O)N[C@H](C(=O)N[C@@H](CC(N)=O)C(=O)N[C@H](C(=O)NCC(=O)N[C@@H](CO)C(=O)N[C@@H](CC(N)=O)C(=O)N[C@H](C(=O)N[C@@H](Cc1ccc(O)cc1)C(N)=O)[C@@H](C)O)C(C)C)[C@@H](C)O [Example 15, N-alpha-[(S)-4-Carboxy-4-(19-carboxynonadecanoylamino)butyryl]-[His1,Glu14,Arg18]-pramlintide] ({C20 diacid-γGlu}-HCNTATCATQRLAEFLVRSSNNFGPILPPTNVGSNTY-NH2; disulfide 2-7)
